Here are results for one compound from US20260234167A1, “SOLID STATE FORMS OF DELGOCITINIB AND PROCESS THEREOF” (ASSIA CHEMICAL INDUSTRIES LTD., priority 2023, published 2026).

Holding throughout (assay type): physicochemical
A short description of series [1]: Grinding experiments (strong grinding in mortar with pestle for 2 minutes), XRPD after grinding. On the procedure: Powder X-ray Diffraction was performed on an X-Ray powder diffractometer Bruker D8 Advance; CuK radiation (λ=1.5418 Å); Lynx eye detector; laboratory temperature 22-25° C.; PMMA specimen holder ring. Prior to analysis, the samples were gently ground by means of mortar and pestle in order to obtain a fine powder. The ground sample was adjusted into a cavity of the sample holder and the surface of the sample was smoothed by means of a cover glass. Measurement parameters: Scan range: 2-40 degrees 2-theta; Scan mode: continuous; Step size: 0.05 degrees; Time per step: 0.5 s; Sample spin: 30 rpm; Sample holder: PMMA specimen holder ring with silicon low background. Samples of Delgocitinib forms according to the disclosure were subjected to strong grinding. In these experiments, about 20 mg of the sample was placed in a mortar and ground with a pestle for 2 minutes. XRPD analysis was performed on each sample after the grinding experiment (Table 4): […]

A short description of series [2]: Storage stability at different relative humidities at ambient temperature, XRPD after 7 days. Particulars: for XRPD after storage at different relative humidities for 7 days: ambient temperature, listed as DL1. As for the experimental part: Powder X-ray Diffraction was performed on an X-Ray powder diffractometer Bruker D8 Advance; CuK radiation (λ=1.5418 Å); Lynx eye detector; laboratory temperature 22-25° C.; PMMA specimen holder ring. Prior to analysis, the samples were gently ground by means of mortar and pestle in order to obtain a fine powder. The ground sample was adjusted into a cavity of the sample holder and the surface of the sample was smoothed by means of a cover glass. Measurement parameters: Scan range: 2-40 degrees 2-theta; Scan mode: continuous; Step size: 0.05 degrees; Time per step: 0.5 s; Sample spin: 30 rpm; Sample holder: PMMA specimen holder ring with silicon low background. Samples of crystalline forms of Delgocitinib according to the disclosure, were subjected to conditions of different relative humidities at ambient temperature. XRPD analysis was performed on the samples after 7 days.

Series [3] is described as follows: Storage stability at different relative humidities and temperatures in packed bags, XRPD after 1, 2, 3 and 6 months. To be noted: for XRPD after storage at 25° C. at 60% RH / XRPD after storage at 40° C. at 75% RH: listed as DL1. On the procedure:
Powder X-ray Diffraction was performed on an X-Ray powder diffractometer Bruker D8 Advance; CuK radiation (λ=1.5418 Å); Lynx eye detector; laboratory temperature 22-25° C.; PMMA specimen holder ring. Prior to analysis, the samples were gently ground by means of mortar and pestle in order to obtain a fine powder. The ground sample was adjusted into a cavity of the sample holder and the surface of the sample was smoothed by means of a cover glass.
Measurement parameters: Scan range: 2-40 degrees 2-theta; Scan mode: continuous; Step size: 0.05 degrees; Time per step: 0.5 s; Sample spin: 30 rpm; Sample holder: PMMA specimen holder ring with silicon low background.
Samples of Delgocitinib polymorph forms according to the disclosure were subjected to conditions of different relative humidities at different temperatures. Forms DL1 was kept in low-density polyethylene bag (twist and tied) covered by triple laminated bag (heat and sealed). Forms DL2, DL3, DL10 and DL11 were kept in low-density polyethylene bag (twist and tied) and covered by triple laminated bag (heat and sealed), while 2 gram silica gel sachet was added in between the two bags.

The nature of series [4]: Stability to compression (2 tons, hydraulic press), XRPD after 2 minutes. On the procedure:
Powder X-ray Diffraction was performed on an X-Ray powder diffractometer Bruker D8 Advance; CuK radiation (λ=1.5418 Å); Lynx eye detector; laboratory temperature 22-25° C.; PMMA specimen holder ring. Prior to analysis, the samples were gently ground by means of mortar and pestle in order to obtain a fine powder. The ground sample was adjusted into a cavity of the sample holder and the surface of the sample was smoothed by means of a cover glass. Measurement parameters: Scan range: 2-40 degrees 2-theta; Scan mode: continuous; Step size: 0.05 degrees; Time per step: 0.5 s; Sample spin: 30 rpm; Sample holder: PMMA specimen holder ring with silicon low background. Samples of Delgocitinib were subjected to pressures of 2 tons (Atlas® Autopress hydraulic press, set to 2 tons). XRPD analysis was carried out on the samples after 2 minutes.

Turning to `C[C@H]1CN(C(=O)CC#N)[C@]12CCN(c1ncnc3[nH]ccc13)C2` [Form DL1, 3-[(3S,4R)-3-methyl-7-(7H-pyrrolo[2,3-d]pyrimidin-4-yl)-1,7-diazaspiro[3.4]octan-1-yl]-3-oxopropanenitrile], the XRPD after grinding entry in series [1] (about 20 mg ground in mortar with pestle for 2 minutes, listed as DL1) is listed as “DL1”. The “Resistance to polymorphic changes on grinding (conclusion in words)” value in series [1] (strong grinding, 2 minutes) is on record as “resistant to polymorphic changes”. For the same compound, the “XRPD after storage at different relative humidities for 7 days” value in series [2] (20% relative humidity), in series [2] (40% relative humidity), in series [2] (60% relative humidity) and in series [2] (80% relative humidity) was “DL1” each time. For the same compound, the “Stability after exposure to high and low relative humidity conditions (conclusion in words)” value in series [2] (20-80% relative humidity, at least 7 days) is “stable”. Also, the “XRPD after storage at 25° C. at 60% RH” value in series [3] (1 month), in series [3] (2 months), in series [3] (3 months) and in series [3] (6 months) was “DL1” throughout. In series [3] (25° C./60% RH and 40° C./75% RH, up to 6 months), the “Storage stability (conclusion in words)” value was “highly storage stable”. In addition, the “XRPD after storage at 40° C. at 75% RH” value in series [3] (1 month), in series [3] (2 months), in series [3] (3 months) and in series [3] (6 months) was “DL1” in each case. In series [4] (2 tons for 2 minutes, listed as DL1), the “XRPD after compression force (2 tons for 2 minutes)” value is given as “DL1”. In series [4] (2 tons, 2 minutes), the “Stability under high pressure conditions (conclusion in words)” value is recorded as “stable under high pressure conditions”.
